The record followed here is patent publication US5639474A (Hanmi Pharm. Ind., Ltd., priority 1993, dated 1997).

The conditions of this data set: for Change in contents (per capsule): Initial content: cosurfactant content in soft capsule. An excerpt:
The membrane permeation property of dimethylisosorbide over the storage period at the room temperature was examined for the soft capsules prepared using dimethylisosorbide (ARLASOLVE® DMI) as a cosurfactant according to the present invention and then compared with the membrane permeation properties of ethanol, propylene glycol, Transcutol (diethylene glycol monoethyl ether) and Glycofurol (tetrahydrofurfuryl alcohol polyethylene glycol ether). The content of the cosurfactant in each soft capsule preparation was analyzed by gas chromatography. The components and their constitutional ratios in the compositions used in this experiment are given in the following Table 1 and the experiment results are given in the following Table 2.
Note: Conditions of gas chromatography for each cosurfactant
Column: Ultra 2 (Cross-linked 2% phenylmethyl silicone gun phase, 25 m×0.32 mm, thickness 0.52 μm)
Column temperature: 230° C. (Isothermal)
Detector: FID (Temperature: 270° C.)
Injection temperature: 275° C.
Carrier gas: He (Partition ratio 80:1)
Internal standard: Octyl alcohol
Column: HP-20M (Carbowax 20M) (25 m×0.32 mm, film thickness 0.3 μm)
Column temperature: 30° C. (Isothermal)
Detector: FID (Temperature: 200° C.)
Injection temperature: 150° C.
Internal standard: Diethyl ether
Column temperature: 180° C. (Isothermal)
Detector: FID (Temperature: 240° C.)
Injection temperature: 240° C.
Internal standard: Pentadecanoic acid methyl ester
Column: Ultra 2 (Cross-linked 5% phenylmethyl silicone gun phase, 25 m×0.32 mm, thickness 0.52 μm)
Injection temperature: 270° C.
Detector: FID (Temperature: 270° C.) p1 Injection temperature: 270° C.
Internal standard: Dimethylisosorbide

`CCOCCOCCO` [Transcutol, diethylene glycol monoethyl ether]: the “Change in contents (per capsule): Initial content” value was determined as 19.8. Under “room temperature”, the “Change in contents (per capsule): Storage period 2 days” value is 7.3 and the “Change in contents (per capsule): Storage period 14 days” value amounted to 2.7.

As to “tetrahydrofurfuryl alcohol polyethylene glycol ether [Glycofurol]”, the “Change in contents (per capsule): Initial content” value is reported as 19.8. Further, where the note is “room temperature”, the “Change in contents (per capsule): Storage period 2 days” value was 8.2 and the “Change in contents (per capsule): Storage period 14 days” value is given as 3.2.

`CC(O)CO` (stereo not drawn) [Propylene glycol, propylene glycol]: the “Change in contents (per capsule): Initial content” value was found to be 19.8. Moreover, the “Change in contents (per capsule): Storage period 2 days” value (room temperature) is 3.6. In addition, the “Change in contents (per capsule): Storage period 5 days” value (room temperature, 5 days) was found to be 0.9.
